The source of these data is patent EP1818052A1 (Acacia Pharma Limited, priority 2004, dated 2006).

Assay [1] deals with isolated EDL muscles. The assay can be described thus: Proteolytic rate (tyrosine release) in incubated isolated EDL muscles. Particulars: for Proteolytic rate: EDL muscles from control rats, 10^-4 M added to incubation medium, cycloheximide 0.5 mM. The format is cell-based, rats. As for the experimental part:
(§1) The dissection and isolation of the EDL muscles was carried out under ketamine/xylazine mixture anesthesia. […] Such muscles are able to maintain normal ATP and phosphocreatine concentrations during a 3 hours incubation period. The muscles were incubated in a shaking-thermostatized water bath at 35 °C for 3 hours in 2 ml of Krebs-Henseleit physiological saline pH 7.4, containing 5 mM glucose and 20 mM HEPES. After the addition of the muscles to the vials, the incubation started at a shaking rate of 45 cycles/min.
(§2) Total protein degradation by the isolated muscles was calculated as the rate of tyrosine released in the last two hours of incubation into the medium in the presence of 0.5 mM cycloheximide in order to block the reincorporation of tyrosine into tissue protein. Tyrosine was measured fluorimetrically. Statistical analysis of the data was performed by means of the Student's t test.

In assay [2] the test system is isolated EDL muscles. The assay can be described thus: Protein synthesis rate in incubated isolated EDL muscles. It counts as cell-based, rats. Particulars: for Rate of protein synthesis: EDL muscles from control rats, 10^-4 M added to incubation medium; for increase of the rate of protein synthesis: incubated rat EDL muscles, 10^-4 M in medium. As for the experimental part:
as §1
Synthetic rates are expressed as nmols of [^14C]phenylalanine incorporated per g and 30 min. […]

Assay [3] has as its system tibialis muscles previously injected with bupivacain. The assay can be described thus: Muscular damage by bupivacain: tibialis muscle weight. Particulars: rats injected with bupivacain (0.5%) only (C+B). It counts as in vivo. An excerpt: Muscular regeneration is a process that implies satellite cells activation, muscle precursors cells that lie adjacent to the skeletal muscle fibers. The muscle was damaged by injecting bupivacain intramuscularly (0.5%). This compound, after muscle damage, stimulates muscular regeneration.
Muscle weights are expressed as mg/100 g of initial body weight. Results are mean ± SEM for the number of animals indicated in parentheses.

In assay [4] the test system is Pax-7 and myogenin. The experiment in a line: Real time PCR of satellite cell activation markers in tibialis muscle after bupivacain damage. It counts as in vivo, rats. Particulars: bupivacain (0.5%) only (C + B). An excerpt: PAx-7 and myogenin. Results are mean ± SEM for the number of animals indicated in parentheses.
(In general: Real-time PCR tracks product formation cycle by cycle.)

Assay [5] concerns isolated EDL muscles. As for the experimental part:
as §1, §2
Rates were measured in presence of cycloheximide (0.5 mM) and are expressed as nmols/g and 2 hours. […]

For assay [6], the system named is rats bearing Yoshida AH-130 ascites hepatoma. Particulars: rat, in vivo.
The test system is the same in assay [7]. Particulars: rat, in vivo. This is another data set of the same source.
The test system is the same in assay [8]. Particulars: rat, in vivo. The source holds these as a separate data set.

Several values for one entry are separate records, joined by “and”; a condition that tells them apart may be missing. Equal entries are not always repeated. Where two headings read alike, the source gives them in different places.

In the case of `CC(C)(C)NCC(O)c1cc(Cl)c(N)c(Cl)c1` (stereo not shown) [clenbuterol], in assay [1], the Proteolytic rate is 176 ± 4.4 (8) nmols/g and 2 hours. Further, in assay [2], the “Rate of protein synthesis” value was 9.36 ± 0.5 (9) nmols of [14C]phenylalanine in and the “increase of the rate of protein synthesis” value is listed as 20%.
`CCCCN1CCCCC1C(=O)Nc1c(C)cccc1C` (stereo not shown) [B, bupivacain]: the “weight of tibialis muscles” value in assay [3] is reported as 265 ± 4 mg/100 g of initial body weight. Also, in assay [4], the Myogenin gene expression worked out at 142 ± 77 and the Pax-7 gene expression stood at 105 ± 11.
As to `COc1ccc(C[C@H](C)NC[C@@H](O)c2ccc(O)c(NC=O)c2)cc1` (racemic) [formoterol], the Proteolytic rate in assay [5] (EDL muscles from rats given formoterol 2 mg/kg bw for six consecutive days, cycloheximide 0.5 mM) was 159 ± 5 (8) nmols/g and 2 hours. Also, the “decrease of proteolytic rate” value in assay [5] (EDL muscles from rats pre-treated for six consecutive days) was 12%. Moreover, in assay [6], the efficacy against cachexia result was “effective against cachexia”; the “muscle weights: soleus” value is 37 ± 1 mg/100 g of initial body weight and 33 ± 2 mg/100 g of initial body weight and 37 ± 2 mg/100 g of initial body weight. In addition, the Proteolytic rate in assay [1] is 180 ± 5.6 (8) nmols/g and 2 hours. Besides, the “decrease of the rate of protein degradation (release of tyrosine)” value in assay [1] (isolated EDL muscles, 10^-4 M in medium) was determined as 20%. In addition, in assay [7], the carcass weigth was 106 ± 1 g/100 g of initial body weight and 97 ± 1 g/100 g of initial body weight; the “effect on cancer cachexia” value is recorded as “effective at low doses”; the “muscle weigths: EDL” value was 52 ± 1 t mg/100 g of initial body weight and 51 ± 2 t mg/100 g of initial body weight; the “muscle weigths: gastrocnemius” value is 629 ± 9 mg/100 g of initial body weight and 598 ± 16 mg/100 g of initial body weight. Moreover, in assay [7], the “muscle weigths: heart” value is 431 ± 5 mg/100 g of initial body weight and 417 ± 18 mg/100 g of initial body weight; the “muscle weigths: soleus” value is 43 ± 2 mg/100 g of initial body weight and 43 ± 1 mg/100 g of initial body weight; the “muscle weigths: tibialis” value was 210 ± 5 t mg/100 g of initial body weight and 199 ± 4 t mg/100 g of initial body weight. Further, in assay [2], the “Rate of protein synthesis” value is 9.36 ± 0.3 (7) nmols of [14C]phenylalanine in and the “increase of the rate of protein synthesis” value is reported as 20%. Moreover, in assay [8], the Tumor cell number entry was “not significantly affected”; the “adipose tissues weight: brown (interscapular)” value was 278 ± 21 mg/100 g of initial body weight and 177 ± 11 † *** mg/100 g of initial body weight; the “adipose tissues weight: white (dorsal)” value was 759 ± 126 mg/100 g of initial body weight and 461 ± 49 mg/100 g of initial body weight; the “brown adipose tissue weight” value is given as “increase”. In assay [8], the carcass weight is 113 ± 11 g/100 g of initial body weight and 81 ± 1 g/100 g of initial body weight; the “increase in EDL weight” value was 32% and 16%; the “increase in cardiac muscle weight” value is 21%; the “increase in heart weight” value is 11%. Moreover, in assay [8], the “muscle weight: EDL” value was 70 ± 3 mg/100 g of initial body weight and 50 ± 1 ††† *** mg/100 g of initial body weight; the “muscle weight: gastrocnemius” value was 859 ± 38 mg/100 g of initial body weight and 639 ± 16 mg/100 g of initial body weight; the “muscle weight: heart” value is 520 ± 15 mg/100 g of initial body weight and 426 ± 17 † ** mg/100 g of initial body weight; the “muscle weight: soleus” value was 55 ± 4 mg/100 g of initial body weight and 40 ± 1 mg/100 g of initial body weight. In assay [8], the “muscle weight: tibialis” value is 275 ± 12 mg/100 g of initial body weight and 204 ± 4 †† *** mg/100 g of initial body weight; the “trophic action on soleus” value is on record as “not significantly affected”; the tumor cell content is given as 3403 ± 88 (5) millions of cells; the “white adipose tissue mass” value is “tendency towards a decrease”.
